Target: human iNKT‐cell TCR (Homo sapiens, UniProt A0A0B4J240+P15813)
Assay: SPR (BIAcore) binding of soluble human iNKT‐cell TCR to hCD1d/lipid complexes
Procedure: Two analogs of ThrCer, ThrCer 6, and ThrCer 7 were synthesized. […] We first carried out measurements to assess the binding affinity of these ThrCer analogs to human iNKT‐cell TCR (Fig. 1B). Recombinant human CD1d (hCD1d) molecules were refolded in vitro with ThrCer 6 and ThrCer 7 separately and coupled to BIAcore chips, over which refolded human iNKT‐cell TCR was injected at different concentrations 34. […] Importantly, these findings were consistent with data obtained using tetrameric human iNKT‐cell TCRs as a staining reagent to identify lipid/CD1d complexes on the surface of C1R cells that had been transfected with hCD1d cDNA (hCD1d C1R cells) and subsequently loaded with the different lipids 34 (Fig. 1C).
Soluble human invariant TCR was generated as previously described 34 where both the Vα24 and Vβ11 chains were individually overexpressed in Escherichia coli, purified from the inclusion bodies, then refolded, and purified to generate the TCR heterodimers, according to Boulter et al. 43. The murine TCR was generated according to Pellici et al. as a chimeric molecule (with variable murine regions and human constant regions) 44. The hybrid alpha chains and beta chains were individually expressed in E. coli and purified from the inclusion bodies, then refolded as above.
SPR experiments were performed with a BIAcore 3000 to measure the affinity and kinetics of iNKT‐cell TCR binding to human CD1d–ligand complexes. In brief, approximately 1000 RU of the biotinylated hCD1d–lipid complexes were immobilized onto streptavidin‐coated CM5 sensor chips (BIAcore). Aliquots of purified TCR with increasing concentrations were passed over immobilized hCD1d–lipid complex at a flow rate of 10 μL/min for the equilibrium‐binding experiments or 50 μL/min for the kinetics experiments. The dissociation constants, K d, were calculated by fitting the data from the equilibrium‐binding experiment to a non‐linear regression saturation binding model (GraphPad Prism 5.0), whereas the k off data were estimated from the kinetics experiments by fitting the data with the built‐in models of the BIAeval3.1 software (BIAcore).

Kd (SPR equilibrium binding, hCD1d refolded with lipid, read-out: K d, human iNKT‐cell TCR binding to hCD1d/lipid complex): 3.15 µM | koff (SPR kinetics experiment, read-out: k off, human iNKT‐cell TCR from hCD1d/lipid complex): 0.114 s⁻¹
SMILES: CCCCCCCCCCCCCCCCCCCCCCCCCC(=O)N[C@@H](COC[C@H](O)[C@@H](O)CO)[C@H](O)[C@H](O)CCCCCCCCCCCCCC [ThrCer, threitolceramide, reference compound]
